biological target: human LPAR1 (Homo sapiens (Human), UniProt Q92633); assay: LPAR1 intracellular calcium mobilization assay (antagonist mode, FLIPR); assay type: cell-based; settings: CHO-K1 EDG2 cells expressing human LPAR1, LPA 18:2 at EC80 (100 nM), test compound 0.5 nM to 10 μM
Sequence (Q92633 whole entry): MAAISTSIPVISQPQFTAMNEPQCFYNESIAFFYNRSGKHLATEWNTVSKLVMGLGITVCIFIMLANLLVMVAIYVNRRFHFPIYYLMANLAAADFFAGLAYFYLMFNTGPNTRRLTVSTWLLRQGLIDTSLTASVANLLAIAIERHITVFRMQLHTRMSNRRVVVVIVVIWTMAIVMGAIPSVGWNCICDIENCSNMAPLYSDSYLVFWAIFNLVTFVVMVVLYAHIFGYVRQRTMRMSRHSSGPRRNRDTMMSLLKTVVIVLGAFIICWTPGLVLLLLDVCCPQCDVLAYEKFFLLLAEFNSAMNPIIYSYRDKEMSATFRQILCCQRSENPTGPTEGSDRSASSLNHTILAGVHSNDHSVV

| Compound | EC50 |
| --- | --- |
| C[C@@H](OC(=O)Nc1c(-c2ccc(NC(=O)c3cncc(C(F)F)c3)cn2)nnn1C)c1cc(F)cnc1F [Compound 219, (R)-1-(2,5-difluoropyridin-3-yl)ethyl (4-(5-(5-(difluoromethyl)nicotinamido)pyridin-2-yl)-1-methyl-1H-1,2,3-triazol-5-yl)carbamate] | 37.7 nM |
| C[C@@H](OC(=O)Nc1c(-c2ncc(NC(=O)c3ccc(Cl)nc3)cn2)nnn1C)c1cc(F)cnc1F [Compound 319, (R)-1-(2,5-difluoropyridin-3-yl)ethyl (4-(5-(6-chloronicotinamido)pyrimidin-2-yl)-1-methyl-1H-1,2,3-triazol-5-yl)carbamate] | 1500 nM |
| COCC(=O)Nc1ccc(-c2nnn(C)c2NC(=O)O[C@H](C)c2cccnc2Cl)nc1 [Compound 31, (R)-1-(2-chloropyridin-3-yl)ethyl (4-(5-(2-methoxyacetamido)pyridin-2-yl)-1-methyl-1H-1,2,3-triazol-5-yl)carbamate] | 2330 nM |
| C[C@@H](OC(=O)Nc1c(-c2ccc(NC(=O)C3OCCO3)cn2)nnn1C)c1cccnc1Cl [Compound 153, (R)-1-(2-chloropyridin-3-yl)ethyl (4-(5-(1,3-dioxolane-2-carboxamido)pyridin-2-yl)-1-methyl-1H-1,2,3-triazol-5-yl)carbamate] | 933 nM |
| C[C@@H](OC(=O)Nc1c(-c2ccc(NC(=O)C34CC(F)(C3)C4)cn2)nnn1C)c1cccnc1F [Compound 173, (R)-1-(2-fluoropyridin-3-yl)ethyl (4-(5-(3-fluorobicyclo[1.1.1]pentane-1-carboxamido)pyridin-2-yl)-1-methyl-1H-1,2,3-triazol-5-yl)carbamate] | 181 nM |
| C[C@@H](OC(=O)Nc1c(-c2ccc(NC(=O)C3(C#N)CC3)c(F)n2)nnn1C)c1cccnc1Cl [Compound 316, (R)-1-(2-chloropyridin-3-yl)ethyl (4-(5-(1-cyanocyclopropane-1-carboxamido)-6-fluoropyridin-2-yl)-1-methyl-1H-1,2,3-triazol-5-yl)carbamate] | 41.6 nM |
| C[C@@H](OC(=O)Nc1c(-c2ccc(NC(=O)C3CC4(C3)CC(F)(F)C4)cn2)nnn1C)c1cccnc1Cl [Compound 41, (R)-1-(2-chloropyridin-3-yl)ethyl (4-(5-(6,6-difluorospiro[3.3]heptane-2-carboxamido)pyridin-2-yl)-1-methyl-1H-1,2,3-triazol-5-yl)carbamate] | 38.1 nM |
| C[C@@H](OC(=O)Nc1c(-c2ccc(NC(=O)c3ccccc3)cn2)nnn1C)c1cccnc1Cl [Compound 29, (R)-1-(2-chloropyridin-3-yl)ethyl (4-(5-benzamidopyridin-2-yl)-1-methyl-1H-1,2,3-triazol-5-yl)carbamate] | 261 nM |
| C[C@@H](OC(=O)Nc1c(-c2ccc(NC(=O)CC3OCCO3)cn2)nnn1C)c1cccnc1Cl [Compound 196, (R)-1-(2-chloropyridin-3-yl)ethyl (4-(5 (2-(1,3-dioxolan-2-yl)acetamido)pyridin-2-yl)-1-methyl-1H-1,2,3-triazol-5-yl)carbamate] | 1030 nM |
| C[C@@H](OC(=O)Nc1c(-c2ccc(NC(=O)[C@H]3C[C@@H](O)C3)cn2)nnn1C)c1cccnc1Cl [Compound 155, (R)-1-(2-chloropyridin-3-yl)ethyl (4-(5-((1s,3S)-3-hydroxycyclobutane-1-carboxamido)pyridin-2-yl)-1-methyl-1H-1,2,3-triazol-5-yl)carbamate] | 748 nM |
| C[C@@H](OC(=O)Nc1c(-c2ncc(NC(=O)C3(C#N)CC3)cc2F)nnn1C)c1cc(F)cnc1F [Compound 336, (R)-1-(2,5-difluoropyridin-3-yl)ethyl (4-(5-(1-cyanocyclopropane-1-carboxamido)-3-fluoropyridin-2-yl)-1-methyl-1H-1,2,3-triazol-5-yl)carbamate] | 258 nM |
| C[C@@H](OC(=O)Nc1c(-c2ccc(NC(=O)C3(C#N)CC(=O)C3)cn2)nnn1C)c1cccnc1Cl [Compound 141, (R)-1-(2-chloropyridin-3-yl)ethyl (4-(5-(1-cyano-3-oxocyclobutane-1-carboxamido)pyridin-2-yl)-1-methyl-1H-1,2,3-triazol-5-yl)carbamate] | 459 nM |

Source: US11912686B2 (Gilead Sciences, Inc., priority 2020, dated 2024)
